Each structure is given as a SMILES string.

Data set [1] has as its system Botryotinia fuckeliana (Botrytis cinerea). In words: Botryotinia fuckeliana (Botrytis cinerea) / liquid culture (Gray mould). Particulars: 72 h, 200 ppm, liquid culture, 24° C., inhibition of growth determined photometrically 3-4 days after application, vs untreated control, read-out: disease control. In kind it is cell-based.
In data set [2] the test system is Mycosphaerella graminicola (Septoria tritici). In words: Mycosphaerella graminicola (Septoria tritici) / liquid culture (Septoria blotch). The class given is cell-based. Particulars: Zymoseptoria tritici, 96 h, liquid culture, 24° C., inhibition of growth determined photometrically 4-5 days after application, vs untreated control, read-out: disease control.
For the next data set, the system named is Fusarium culmorum. Kind of data set: microbe, parasite or virus in culture. The class given is cell-based. Particulars: 72 h, read-out: disease control.
In a further data set the test system is Gaeumannomyces graminis. In words: Gaeumannomyces graminis / liquid culture (Take-all of cereals). In kind it is cell-based. Particulars: 96 h, liquid culture, 24° C., inhibition of growth determined photometrically 4-5 days after application, vs untreated control, read-out: disease control.
Data set [3] relates to Glomerella lagenarium (Colletotrichum lagenarium). In words: Glomerella lagenarium (Colletotrichum lagenarium) / liquid culture (Anthracnose). In kind it is cell-based. Particulars: Colletotrichum orbiculare; 200 ppm; liquid culture, 24° C., inhibition of growth measured photometrically 3-4 days after application; vs untreated control; read-out: disease control.
The subject of data set [4] is Monographella nivalis (Microdochium nivale). Kind of data set: Monographella nivalis (Microdochium nivale) / liquid culture (Foot rot cereals). The class given is cell-based. As to conditions: 96 h, 200 ppm, liquid culture, 24° C., inhibition of growth determined photometrically 4-5 days after application, vs untreated control, read-out: disease control.

In the case of `CC1(C)Cc2c(F)cccc2C(c2cnn3cccc3c2)=N1` [E 3], the inhibition of growth at 200 ppm (in data set [1]; in data set [2]; in the data set on Fusarium culmorum; in the data set on Gaeumannomyces graminis; in data set [3]; in data set [4]) was ≥ 80% in each case.

Regarding `C#Cc1cccc2c1CC(C)(C)N=C2c1cnn2c(F)ccc2c1` [E 27], the inhibition of growth at 200 ppm (in data set [1]; in data set [2]; with Fusarium culmorum; in the data set with Gaeumannomyces graminis; in data set [3]; in data set [4]) was ≥ 80% each time.

`CC1(C)Cc2c(F)cccc2C(c2cnn3c(C#N)ccc3c2)=N1` [E 30, 3-(5-fluoro-3,3-dimethyl-4H-isoquinolin-1-yl)pyrrolo[1,2-b]pyridazine-7-carbonitrile] returned a melting point of 118 to 136 °C. Besides, the inhibition of growth at 200 ppm in data set [1] is ≥ 80%. Further, the inhibition of growth at 200 ppm in data set [2] was ≥ 80%. In addition, the inhibition of growth at 200 ppm in the data set on Fusarium culmorum was ≥ 80%. Further, in the data set with Gaeumannomyces graminis, the inhibition of growth at 200 ppm is ≥ 80%. Further, the inhibition of growth at 200 ppm in data set [3] was ≥ 80%. In addition, in data set [4], the inhibition of growth at 200 ppm is ≥ 80%.

`CC1(C)N=C(c2cnn3c(C#N)cc(Br)c3c2)c2cccc(F)c2C1(F)F` [E 64, 5-bromo-3-(4,4,5-trifluoro-3,3-dimethyl-1-isoquinolyl)pyrrolo[1,2-b]pyridazine-7-carbonitrile] had a melting point of 190 to 192 °C.

In turn, `CC1(C)N=C(c2cnn3c(C#N)ccc3c2)c2cccc(F)c2C1(F)F` [E 66, 3-(4,4,5-trifluoro-3,3-dimethyl-1-isoquinolyl)pyrrolo[1,2-b]pyridazine-7-carbonitrile] displayed a melting point of 214 to 216 °C. Further, the inhibition of growth at 200 ppm in data set [1] was ≥ 80%. The inhibition of growth at 200 ppm in the data set on Fusarium culmorum was ≥ 80%. Further, the inhibition of growth at 200 ppm in data set [3] was ≥ 80%. For the same molecule, the inhibition of growth at 200 ppm in data set [4] is ≥ 80%.

For the origin of these results see US9586969B2, “Microbiocidal heterobicyclic derivatives” (Syngenta Participations AG, priority 2014, dated 2017).
